{"source": "patent US8273758B2", "about": "“Substituted tricyclic derivatives” (Sanofi, priority 2008, dated 2012)", "key": {"[1]": {"biological_target": "GSK3β (Homo sapiens, UniProt P49841)", "sequence (P49841 whole entry)": "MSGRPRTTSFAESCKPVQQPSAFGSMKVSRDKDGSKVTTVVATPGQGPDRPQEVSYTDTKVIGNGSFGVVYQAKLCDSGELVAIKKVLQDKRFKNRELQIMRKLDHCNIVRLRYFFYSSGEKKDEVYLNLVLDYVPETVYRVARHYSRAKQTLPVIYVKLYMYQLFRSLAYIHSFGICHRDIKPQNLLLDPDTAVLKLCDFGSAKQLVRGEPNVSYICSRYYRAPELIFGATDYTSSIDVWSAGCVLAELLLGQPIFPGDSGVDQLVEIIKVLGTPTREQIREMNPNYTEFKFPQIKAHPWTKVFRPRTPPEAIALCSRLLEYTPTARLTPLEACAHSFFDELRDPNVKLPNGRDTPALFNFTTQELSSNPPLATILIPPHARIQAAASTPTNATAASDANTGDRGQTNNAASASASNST", "test": "Inhibitory activity against GSK3β (33P-ATP phosphorylation of prephosphorylated GS1 peptide)", "assay_type": "biochemical", "conditions": "protocol 3: 7.5 μM GS1 peptide, 10 μM ATP, 50 mM Hepes pH 7.2, one hour, room temperature", "protocol": "Four different protocols can be used.\nIn a first protocol: 7.5 μM of prephosphorylated GS1 peptide and 10 μM ATP (containing 300,000 cpm of ^33P-ATP) were incubated in 25 mM Tris-HCl, pH 7.5, 0.6 mM DTT, 6 mM MgCl2, 0.6 mM EGTA, 0.05 mg/ml BSA buffer for 1 hour at room temperature in the presence of GSK3beta (total reaction volume: 100 microliters).\nIn a second protocol: 4.1 μM of prephosphorylated GS1 peptide and 42 μM ATP (containing 260,000 cpm ^33P-ATP) were incubated in 80 mM Mes-NaOH, pH 6.5, 1 mM Mg acetate, 0.5 mM EGTA, 5 mM 2-mercaptoethanol, 0.02% Tween 20, 10% glycerol buffer for 2 hours at room temperature in the presence of GSK3beta.\nIn a third protocol: 7.5 μM of prephosphorylated GS1 peptide and 10 μM ATP (containing 300,000 cpm of ^33P-ATP) were incubated in 50 mM Hepes, pH 7.2, 1 mM DTT, 1 mM MgCl2, 1 mM EGTA, 0.01% Tween 20 buffer for one hour at room temperature in the presence of GSK3beta (total reaction volume: 100 microliters). […]\nThe reaction was stopped with 100 microliters of a solution made of 25 g polyphosphoric acid (85% P2O5), 126 ml 85% H3PO4, H2O to 500 ml and then diluted to 1:100 before use. […] Incorporated ^33P radioactivity was determined by liquid scintillation spectrometry. […]"}}, "data": [{"smiles": "O=C(CN1c2ccccc2Cn2c1nc(-c1ccncn1)cc2=O)c1ccccc1", "note": "[Compound No. 3, 9-(2-Oxo-2-phenyl-ethyl)-2-pyrimidin-4-yl-9,10-dihydro-1,4a,9-triaza-anthracen-4-one]", "values": [{"measurement": "IC50", "setting": "[1]", "result": 6, "unit": "nM"}, {"measurement": "melting point", "result": "263 to 265", "unit": "°C"}]}]}
